Results on two molecules are retold here after ChEMBL document CHEMBL1139587, “Synthesis of an N-acyl sulfamate analog of luciferyl-AMP: a stable and potent inhibitor of firefly luciferase” (Bioorg Med Chem Lett, 2005).

For series [1], the target named is T1, Luciferin 4-monooxygenase (Luciola lateralis, UniProt Q01158).
T1 sequence (Q01158 whole entry): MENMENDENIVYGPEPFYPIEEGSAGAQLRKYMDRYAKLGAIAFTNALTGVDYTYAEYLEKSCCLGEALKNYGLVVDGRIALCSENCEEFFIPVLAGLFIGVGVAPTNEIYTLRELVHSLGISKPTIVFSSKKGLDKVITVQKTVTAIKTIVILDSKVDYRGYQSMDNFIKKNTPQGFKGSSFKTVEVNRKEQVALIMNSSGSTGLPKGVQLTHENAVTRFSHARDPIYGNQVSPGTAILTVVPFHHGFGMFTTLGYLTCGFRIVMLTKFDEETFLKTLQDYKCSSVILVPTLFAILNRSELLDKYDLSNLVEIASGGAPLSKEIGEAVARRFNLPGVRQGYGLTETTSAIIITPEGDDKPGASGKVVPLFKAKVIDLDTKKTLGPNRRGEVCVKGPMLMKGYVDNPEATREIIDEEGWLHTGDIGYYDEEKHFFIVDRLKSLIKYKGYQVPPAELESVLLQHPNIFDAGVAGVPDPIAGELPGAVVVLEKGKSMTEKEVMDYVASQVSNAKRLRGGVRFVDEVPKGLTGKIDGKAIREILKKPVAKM
Briefly: Inhibition constant against luciferase with respect to luciferyl-adenylate. Details: species or system Aquatica lateralis.

Series [2] has as its target T1, Luciferin 4-monooxygenase. Briefly: Inhibition constant against luciferase with respect to natural substrate Mg-ATP. Details: species or system Aquatica lateralis.
Series [3] deals with T1, Luciferin 4-monooxygenase. Briefly: Inhibition constant against luciferase with respect to natural substrate luciferin. Details: species or system Aquatica lateralis.
Substrate in series [4]: Nc1ncnc2c1ncn2C1O[C@H](COP(=O)(O)OC(=O)c2csc(-c3nc4ccc(O)cc4s3)n2)[C@@H](O)[C@H]1O
Briefly: Binding affinity against luciferase. Particulars: Aquatica lateralis.

For orientation: Ki means the dissociation constant of the complex between target and ligand, obtained from inhibition or displacement. Higher therefore signals weaker binding. As for `Nc1ncnc2c1ncn2[C@@H]1O[C@H](COS(=O)(=O)NC(=O)c2csc(-c3nc4ccc(O)cc4s3)n2)[C@@H](O)[C@H]1O`, the Ki is 340 nM in series [1], 41 nM in series [2] and 34 nM in series [3].

B1: Luciferin 4-monooxygenase (Luciola lateralis), Q01158 (protein)
chain: T1 sequence (Q01158 whole entry)
The Km is the substrate concentration at which the rate is half of its maximum. Consider B1, for which the Km in series [4] amounted to 4.7 µM.
